Experimental data taken from US9458104B2 (priority 2012, dated 2016).

Key:
[1] = biological target: T1, RORγ ligand binding domain (LBD) (Homo sapiens, UniProt P51449); assay: TR-FRET Activity Assay (ligand sensing assay, RORγ-LBD / coactivator peptide interaction); type: biochemical
T1 construct: made in house; host or cells: E. coli BL-21 (BL3), vector pDEST15
T1 sequence (P51449 269-508 limits assumed): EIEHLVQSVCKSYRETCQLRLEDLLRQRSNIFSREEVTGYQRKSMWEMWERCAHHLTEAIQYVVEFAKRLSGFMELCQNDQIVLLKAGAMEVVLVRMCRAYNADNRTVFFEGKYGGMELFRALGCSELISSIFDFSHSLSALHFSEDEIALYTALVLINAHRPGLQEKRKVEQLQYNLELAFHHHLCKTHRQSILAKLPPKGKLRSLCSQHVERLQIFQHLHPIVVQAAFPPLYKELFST
Procedure, shortened: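 GST-RORγ LBD expressed in bacteria, 20–60 ng/well, with biotinylated coactivator peptide 200–600 nM, streptavidin-APC and Eu-anti-GST. Buffer: 20 mM Tris-HCl pH 6.8, 60 mM KCl, 1 mM DTT, 5 mM MgCl2, BSA; 1% DMSO. LANCE TR-FRET 665/615 nm ratio; IC50 from four-parameter logistic fit.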

RORγ = biological target: T2, RORγ (UniProt P51449); type: cell-based; conditions: 293T cells, 16 h; for pIC50 (FF): firefly (FF) luciferase; for pIC50 (REN): renilla normalised (RENnorm) luciferase
T2 construct: hRORg-LBD|aa259-518|NP_005051.2; hRORgt|aa1-497|NP_001001523 (RORg, t isoform, 497aa); mRORg-LBD|aa264-516|NP_035411
T2 sequence (P51449 1-518): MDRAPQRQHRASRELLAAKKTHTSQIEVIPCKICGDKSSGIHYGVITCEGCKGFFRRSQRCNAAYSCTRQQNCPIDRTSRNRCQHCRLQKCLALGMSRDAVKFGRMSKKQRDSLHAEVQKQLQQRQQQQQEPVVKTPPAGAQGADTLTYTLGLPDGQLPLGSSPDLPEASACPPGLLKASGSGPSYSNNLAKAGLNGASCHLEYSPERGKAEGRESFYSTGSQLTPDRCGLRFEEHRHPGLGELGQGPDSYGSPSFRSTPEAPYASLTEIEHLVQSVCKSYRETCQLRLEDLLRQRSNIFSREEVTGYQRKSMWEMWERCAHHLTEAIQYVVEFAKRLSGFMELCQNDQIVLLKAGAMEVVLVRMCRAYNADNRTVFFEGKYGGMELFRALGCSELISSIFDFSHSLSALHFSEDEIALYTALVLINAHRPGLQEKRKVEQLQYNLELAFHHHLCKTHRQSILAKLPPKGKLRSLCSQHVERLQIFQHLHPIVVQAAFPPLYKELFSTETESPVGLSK

Structure (SMILES) | IC50 [1] | pIC50 (FF) (RORγ) | pIC50 (REN) (RORγ)
C=CCCC(=O)c1cc(-c2cc(C(C)(C)C)cc(C(C)(C)C)c2)n(CC2CCCCC2)c1C [Example 322, 1-(1-(Cyclohexylmethyl)-5-(3,5-di-tert-butylphenyl)-2-methyl-1H-pyrrol-3-yl)pent-4-en-1-one] | 1580 nM | < 4.7 | < 4.7
Cc1c(C(=O)CC2CC2)cc(-c2cc(C(C)(C)C)cc(C(C)(C)C)c2)n1CC1CCCCC1 [Example 324, 1-(1-(Cyclohexylmethyl)-5-(3,5-di-tert-butylphenyl)-2-methyl-1H-pyrrol-3-yl)-2-cyclopropylethanone] | 631 nM | < 4.7 | < 4.7
Cc1c(S(=O)(=O)CC2CC2)cc(-c2cc(C(C)(C)C)cc(C(C)(C)C)c2)n1CC1CCCCC1 [Example 325, 1-(Cyclohexylmethyl)-3-((cyclopropylmethyl)sulfonyl)-5-(3,5-di-tert-butylphenyl)-2-methyl-1H-pyrrole] | 398 nM | 6.1 | 6.1
CCS(=O)(=O)c1cc(-c2cc(C(C)(C)C)cc(C(C)(C)C)c2)n(CC2CCCCC2)c1C [Example 325/1] | 251 nM | 6.0 | 6.3
